Data taken from paper PMC10629583, “Specific inhibition of an anticancer target, polo-like kinase 1, by allosterically dismantling its mechanism of substrate recognition” (Proceedings of the National Academy of Sciences of the …, 2023).

Molecular target: T1, PBD3 A612F mutant (Homo sapiens, UniProt Q9H4B4, A612F)
T1 construct: MBP-PBD3-His (335–646) (pKM3359) and its A612F (pKM7981); His (C); made in house; host or cells: bacteria (E. coli)
Assay: FP-based inhibition assay, PBD3 A612F
Format: binding
Conditions: MBP-PBD3 A612F
Method: FP assays were carried out essentially as described previously ([35], [36]). FITC-conjugated ligands (15 nM) were mixed with PBDs at their EC85 concentrations. All the samples were analyzed approximately 30 min after reaction in a 384-well format using the SpectraMax Paradigm multimode microplate detection platform (Molecular Devices). Data were analyzed after carrying out at least three independent experiments using GraphPad Prism software version 8.
Fig. S3. Sequence alignment showing unique PBD2 S652 and PBD3 A612 residues and FP-based Allopole-A inhibition assays carried out with PBD2 S652F and PBD A612F mutants. (A) Human PBD1 (Uniprot ID: P53350), PBD2 (Uniprot ID: Q9NYY3), and PBD3 (15niport ID:Q9H4B4) sequences were aligned using Clustal Omega. The polo-box cap and L1 loop regions were adjusted based on the structural superposition of PBD1 (PDB ID: 3HIK), PBD2 (PDB_ID: 4RS6), and the AlphaFold model of PBD3 (https://alphafold.ebi.ac.uk). […]
with PBD2 and MBP-PBD3 are working properly under our conditions. […] The Kd values for the indicated proteins were determined after extrapolating them from the binding curves as the […]
concentration at which 50% of FITC-conjugated ligands (FITC-GPMQTSpTPKNG for PBD2 and FITC-GPLATSpTPKNG for PBD3) (5) are protein-bound. The EC85 values indicate the effective concentration of 85% of the maximal concentration calculated for each protein. […]

T1 sequence (Q9H4B4 335-646 A612F): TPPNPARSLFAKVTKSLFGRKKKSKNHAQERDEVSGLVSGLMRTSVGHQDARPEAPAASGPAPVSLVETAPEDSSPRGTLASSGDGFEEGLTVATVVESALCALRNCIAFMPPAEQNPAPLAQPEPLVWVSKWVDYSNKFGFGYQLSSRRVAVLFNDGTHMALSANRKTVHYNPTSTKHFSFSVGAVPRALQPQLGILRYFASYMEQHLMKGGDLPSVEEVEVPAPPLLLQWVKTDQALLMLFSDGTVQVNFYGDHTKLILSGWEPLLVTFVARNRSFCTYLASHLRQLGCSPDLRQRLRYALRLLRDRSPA

O=c1c2sc(Cl)cc2n2c(=S)[nH]nc2n1CC1CC1 [Allopole-A]
Inhibition in FP assay (in words): not inhibitable
